Experiments:
[1] = test system: latent HIV-1 in rCD4+ cells co-cultured with CD8+ cells; assay: HIV-1 reactivation in ex vivo co-cultures of rCD4+ and CD8+ cells from an ART-treated HIV patient (HIV RNA in supernatant); format: cell-based, human
Description: The efficacy of IAPa, ICI or IAPa/ICI combinations in reversing HIV-1 latency was tested in HIV-1 infected rCD4+ cells co-cultured for 48 h with CD8+ cells from the same donor.
Method: Blood from one HIV-1-infected patient under ART was collected (500 mL) and CD4+ and CD8+ cells isolated using beads coated with specific antibodies following manufacturer's instruction (MojoSort™ Human Cell Isolation Kits from Biolegend). The CD4+ T cells were re-infected with HIV-1 (JR-CSF) (1 μg of p24), incubated for 3 days to allow establishment of infection, and treated with ART ([…]) for 7 days to ensure presence of enough latent HIV CD4+ cells (rCD4+) in the culture. Upon ART removal, rCD4 were then isolated following manufacturer's instruction (EasySep™ Human Resting CD4+ T Cell Isolation Kit). The isolated rCD4 were mixed with autologous (from the same patient) uninfected CD8+ T cells at a 1:1 ratio (100,000 cells) and incubated in duplicate for 48 h with different IAPa ([…]) or ICI (10 μg/ml) in monotherapy, or the IAPa/ICI combinations. Amounts of virions released from cells were quantified at the indicated time points by quantifying HIV RNA levels (HIV RNA copies/mL) in supernatant of cell culture using one-step reverse transcriptase quantitative real-time PCR (ABI custom TaqMan Assays-by-Design) according to the manufacturer's instructions. Primers were 5-[…]-3 and 5-[…]-3, and MGB probe 5-FAM-[…]-Q-3, where FAM is 6-carboxyfluorescein.

[2] = test system: latent HIV in resting CD4+ T-lymphocytes; assay: HIV-1 reactivation in resting CD4+ T cells from PBMCs of three ART-treated HIV patients (HIV RNA in supernatant); format: cell-based, human
Source text: The experiments of this example analyzed the ability of IAPa, ICIs, or IAPa/ICI combinations at reactivating latent HIV in resting CD4+ T-lymphocytes isolated from peripheral blood monocytic cells (PBMCs) derived from HIV patients currently under ART.
Method: Resting CD4+ T cells were isolated from PBMCs of three ART-treated HIV patients by negative selection and magnetic separation (Easysep Mouse/Human Chimera Isolation Kits from […] technologies). Isolated resting CD4+ T cells (50,000 cells/50 μL) were treated in duplicate for 48h with different IAPa (1 μM) or ICI (10 μg/ml) in monotherapy, or the IAPa/ICI combinations. Amounts of virions released from cells were quantified at the indicated time points by quantifying HIV RNA levels (HIV RNA copies/mL) in supernatant of cell culture using one-step reverse transcriptase quantitative real-time PCR (ABI custom TaqMan Assays-by-Design) according to the manufacturer's instructions. Primers were 5-[…]-3 and 5-[…]-3, and MGB probe 5-FAM-[…]-Q-3, where FAM is 6-carboxyfluorescein.
(§1) The experiment was carried out using the same agents as described above for Example 8.1 (with the exception that no birinapant was used).

[3] = test system: latent HIV-1 in resting CD4+ T cells; assay: Ex vivo HIV-1 reactivation in human resting CD4+ T cells from ART-treated HIV-1-infected humanized BLT mice (HIV RNA in supernatant); format: cell-based
Description: The efficacy of IAPa, ICI or IAPa/ICI combinations in reversing HIV-1 latency was tested in resting CD4+ T cells derived from ART-treated HIV-1-infected humanized BLT mice.
Human resting CD4+ T cells from ten mice were isolated from blood, thymic organoid, lung, spleen, bone marrow, lymph nodes and liver. Isolated human resting CD4+ T cells were pooled, counted, split and treated in duplicate for 48 h with different IAPa (1 μM) or ICI (10 μg/ml) in monotherapy, or the IAPa/ICI combinations. Amounts of virions released from cells were quantified at the indicated time points by quantifying HIV RNA levels (HIV RNA copies/mL) in supernatant of cell culture using one-step reverse transcriptase quantitative real-time PCR (ABI custom TaqMan Assays-by-Design) according to the manufacturer's instructions. Primers were 5-[…]-3 and 5-[…]-3, and MGB probe 5-FAM-[…]-Q-3, where FAM is 6-carboxyfluorescein.
as §1

BIRC2 = biological target: T1, BIRC2 (Homo sapiens, UniProt Q13490); assay: BIRC2 (cIAP1) degradation by Western blotting; format: cell-based; details: TNFα 10 ng/ml, 2D10 and 293T cells
T1 construct: endogenous in cells; host or cells: 2D10, 293T and CD4+ T cells
Description: It was investigated whether Debio-1143 reverses HIV-1 latency by acting on the NF-κB pathway. Canonical and non-canonical NF-κB signaling pathways play an important role in the reactivation of latent HIV-1, implicating its regulation as an important therapeutic strategy for latency reversal.
Method: 2D10 (A) or 293T (B) and CD4+ T cells (C) cells were treated with DMSO, Debio-1143 (1 μM) and TNFα (10 ng/ml) for the indicated times and analyzed by Western blotting for BIRC2 and IkBα protein expression using antibodies specifically detecting human BIRC2, human IkBα, or human CypA, such as commercially available (e.g. from R&D Systems, Cell Signaling, Santa Cruz Biotechnology, or other sources).

[4] = test system: latent HIV-1 in 2D10 cells; assay: HIV-1 reactivation in latent GFP-reporter 2D10 cells, Debio 1143 and other LRAs alone or in combination; format: cell-based; details: LRA at single predetermined concentration with Debio 1143, already at 2 μM Debio 1143, 48 h
Description: We compared the efficacy of Debio-1143 at reversing HIV-1 latency with that of other LRAs. We then analyzed the cytotoxicity of Debio-1143 with that of the other LRAs on 2D10 cells. Drug titration was conducted.
Methods: HIV-1 latent GFP-reporter 2D10 cells (100,000 cells/100 μL) were treated in triplicate for 48 h with increasing concentrations of either only Debio-1143 or the LRAs (2000 nM or 20000 nM), or with Debio 1143 (2000 nM or 20000 nM) in combination with the LRAs at a single predetermined concentration (see Table 2). HIV reactivation was analyzed via GFP expression by flow cytometry.

2D10 cells = assay: Cytotoxicity by LDH assay in 2D10 cells; format: cell-based; details: 0 to 20 μM, 48 h
Description: Drug titration was conducted.
For analysis of cell viability, cells (100,000 cells/100 μL) were treated in triplicate for 48 h with increasing concentrations of Debio-1143 or other known LRAs (0 to 20 μM). Cellular cytotoxicity was analyzed by Lactate dehydrogenase (LDH) assay. LDH is an oxidoreductase enzyme that catalyzes the interconversion of pyruvate and lactate. Cells release LDH into the bloodstream after tissue damage or red blood cell hemolysis. Since LDH is a fairly stable enzyme, it has been widely used to evaluate the presence of damage and toxicity of tissue and cells. In this particular, LDH reduces NAD to NADH, which is specifically detected by colorimetric (490 nm) assay.

[5] = IAPa 1 μM monotherapy (0.1% DMSO, no ICI), 48 h (Table 3)
[6] = IAPa 1 μM with Control IgG1, 48 h (Table 3)
[7] = IAPa 1 μM with Control IgG2, 48 h (Table 3)
[8] = IAPa 1 μM monotherapy (0.1% DMSO, no ICI), 48 h
[9] = IAPa 1 μM with Control IgG1, 48 h
[10] = IAPa 1 μM with Control IgG2, 48 h

T1 sequence (Q13490 whole entry): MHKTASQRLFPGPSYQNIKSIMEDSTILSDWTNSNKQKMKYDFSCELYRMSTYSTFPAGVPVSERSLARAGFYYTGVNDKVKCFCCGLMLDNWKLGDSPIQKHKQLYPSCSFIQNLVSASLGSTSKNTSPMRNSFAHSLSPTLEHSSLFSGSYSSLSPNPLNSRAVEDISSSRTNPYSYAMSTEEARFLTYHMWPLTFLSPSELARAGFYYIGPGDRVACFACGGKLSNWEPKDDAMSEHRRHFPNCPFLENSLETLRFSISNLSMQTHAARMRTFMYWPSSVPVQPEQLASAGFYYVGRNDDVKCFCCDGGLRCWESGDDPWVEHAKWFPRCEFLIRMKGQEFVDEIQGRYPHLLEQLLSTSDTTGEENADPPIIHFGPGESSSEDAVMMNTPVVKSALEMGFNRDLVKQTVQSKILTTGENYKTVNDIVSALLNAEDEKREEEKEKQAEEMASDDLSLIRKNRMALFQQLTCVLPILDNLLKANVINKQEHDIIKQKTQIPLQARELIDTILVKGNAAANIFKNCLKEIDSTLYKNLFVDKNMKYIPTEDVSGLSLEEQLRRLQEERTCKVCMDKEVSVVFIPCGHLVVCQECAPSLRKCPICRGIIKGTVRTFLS

Compound: CN[C@@H](C)C(=O)N[C@H](C(=O)N1CCC[C@H]1C(=O)Nc1sc(-c2ncco2)nc1-c1ccccc1)C1CCCCC1 [CUDC-427]
- latency reversal class (HIV RNA copies/ml in supernatant) [1, 5]: 3 (Subsequent classes were defined accordingly in steps of 500 RNA copies/ml)
- latency reversal class (HIV RNA copies/ml in supernatant) [1, 6]: 3 (Subsequent classes were defined accordingly in steps of 500 RNA copies/ml)
- latency reversal class (HIV RNA copies/ml in supernatant) [1, 7]: 3 (Subsequent classes were defined accordingly in steps of 500 RNA copies/ml)
- latency reversal class (HIV RNA copies/ml in supernatant) [2, 8]: 1 (Between 501 and 1000 RNA copies/ml were classified as “1”)
- latency reversal class (HIV RNA copies/ml in supernatant) [2, 9]: 1 (Between 501 and 1000 RNA copies/ml were classified as “1”)
- latency reversal class (HIV RNA copies/ml in supernatant) [2, 10]: 1 (Between 501 and 1000 RNA copies/ml were classified as “1”)
- latency reversal class (HIV RNA copies/ml in supernatant) [3, 8]: 2 (Between 2501 and 5000 RNA copies/ml were classified as “2”)
- latency reversal class (HIV RNA copies/ml in supernatant) [3, 9]: 2 (Between 2501 and 5000 RNA copies/ml were classified as “2”)
- latency reversal class (HIV RNA copies/ml in supernatant) [3, 10]: 2 (Between 2501 and 5000 RNA copies/ml were classified as “2”)

Compound: TNFα [reference compound]
- BIRC2 degradation (BIRC2): not

Compound: CC[C@H](NC(=O)[C@H](C)NC)C(=O)N1C[C@@H](O)C[C@H]1Cc1c(-c2[nH]c3cc(F)ccc3c2C[C@@H]2C[C@H](O)CN2C(=O)[C@H](CC)NC(=O)[C@H](C)NC)[nH]c2cc(F)ccc12 [Birinapant]
- latency reversal class (HIV RNA copies/ml in supernatant) ([1]; IAPa 1 μM monotherapy (0.1% DMSO, no ICI), 48 h (Table 4)): 3 (Subsequent classes were defined accordingly in steps of 500 RNA copies/ml)
- latency reversal class (HIV RNA copies/ml in supernatant) ([1]; IAPa 1 μM with Control IgG1, 48 h (Table 4)): 3 (Subsequent classes were defined accordingly in steps of 500 RNA copies/ml)
- latency reversal class (HIV RNA copies/ml in supernatant) ([1]; IAPa 1 μM with Control IgG2, 48 h (Table 4)): 3 (Subsequent classes were defined accordingly in steps of 500 RNA copies/ml)

Compound: O=C(CCCCCCC(=O)Nc1ccccc1)NO [vorinostat]
- degree of HIV reactivation in combination with Debio 1143 [4]: high degrees of HIV reactivation

Compound: Cc1sc2c(c1C)C(c1ccc(Cl)cc1)=N[C@@H](CC(=O)OC(C)(C)C)c1nnc(C)n1-2 [JQ1]
- degree of HIV reactivation in combination with Debio 1143 [4]: high degrees of HIV reactivation

Compound: CN1C(=O)[C@@]23C[C@]4([C@]56C[C@@]78SS[C@@](CO)(C(=O)N7[C@H]5Nc5ccccc56)N(C)C8=O)c5ccccc5N[C@@H]4N2C(=O)[C@]1(CO)SS3 [chaetocin]
- cytotoxicity (LDH assay) (2D10 cells): highly toxic

Compound: CCC/C=C/C=C/C(=O)O[C@H]1/C(=C/C(=O)OC)C[C@H]2C[C@H]([C@@H](C)O)OC(=O)C[C@H](O)C[C@@H]3C[C@H](OC(C)=O)C(C)(C)[C@](O)(C[C@@H]4C/C(=C/C(=O)OC)C[C@H](/C=C/C(C)(C)[C@]1(O)O2)O4)O3 [bryostatin-1]
- degree of HIV reactivation in combination with Debio 1143 [4]: high degrees of HIV reactivation
- cytotoxicity (LDH assay) (2D10 cells): highly toxic

Compound: CN[C@@H](C)C(=O)N[C@H](C(=O)N1CCC[C@H]1c1nc(C(=O)c2ccc(F)cc2)cs1)C1CCCCC1 [LCL161]
- latency reversal class (HIV RNA copies/ml in supernatant) [1, 5]: 3 (Subsequent classes were defined accordingly in steps of 500 RNA copies/ml)
- latency reversal class (HIV RNA copies/ml in supernatant) [1, 6]: 2 (Subsequent classes were defined accordingly in steps of 500 RNA copies/ml)
- latency reversal class (HIV RNA copies/ml in supernatant) [1, 7]: 3 (Subsequent classes were defined accordingly in steps of 500 RNA copies/ml)
- latency reversal class (HIV RNA copies/ml in supernatant) [2, 8]: 1 (Between 501 and 1000 RNA copies/ml were classified as “1”)
- latency reversal class (HIV RNA copies/ml in supernatant) [2, 9]: 1 (Between 501 and 1000 RNA copies/ml were classified as “1”)
- latency reversal class (HIV RNA copies/ml in supernatant) [2, 10]: 1 (Between 501 and 1000 RNA copies/ml were classified as “1”)
- latency reversal class (HIV RNA copies/ml in supernatant) [3, 8]: 2 (Between 2501 and 5000 RNA copies/ml were classified as “2”)
- latency reversal class (HIV RNA copies/ml in supernatant) [3, 9]: 2 (Between 2501 and 5000 RNA copies/ml were classified as “2”)
- latency reversal class (HIV RNA copies/ml in supernatant) [3, 10]: 2 (Between 2501 and 5000 RNA copies/ml were classified as “2”)

Compound: Nc1ccccc1NC(=O)c1ccc(CNC(=O)OCc2cccnc2)cc1 [entinostat]
- degree of HIV reactivation in combination with Debio 1143 [4]: high degrees of HIV reactivation

Compound: Cc1[nH]c2ccccc2c1CCNCc1ccc(/C=C/C(=O)NO)cc1 [panobinostat]
- cytotoxicity (LDH assay) (2D10 cells): highly toxic
